Results on eleven molecules are retold here after patent US20230322846A9, “NEUROACTIVE STEROIDS AND THEIR METHODS OF USE” (SAGE THERAPEUTICS, INC., priority 2018, published 2023).

In assay [1] the target is [35S]-TBPS binding, rat brain cortical membranes. Briefly: Steroid inhibition of [35S]-TBPS binding. The conditions noted are these: 3 nM [35S]-TBPS, in the presence of 5 mM GABA. The procedure, abridged:
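Rat cortical P2 membranes incubated 90 min at room temperature with 3 nM [35S]-TBPS, […] and test compound (0.5% DMSO final) in NaCl/Na–K phosphate pH 7.4; nonspecific binding with […]. Filter-bound radioactivity counted; IC50 and Imax from nonlinear fits, mean ± SEM.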

The target of assay [2] is human GABAA receptors composed of the α1β2γ2 subunits (Homo sapiens (Human), UniProt P14867+P18507+P47870). Briefly: α1β2γ2 SyncroPatch automated patch clamp assay. Format: cell-based. As to conditions: for EC50: HEK cells, potentiation of submaximal GABA current, clamped at −120 mV; for α1β2γ2 EMAX: peak current after GABA+compound divided by peak current after GABA alone. As to the method: (§1) The SyncroPatch 384PE (Nanion, Germany) automated patch clamp platform was used to obtain recordings from human embryonic kidney cells stably expressing human GABAA receptors composed of the α1β2γ2 and α4β3δ subunits. Cells were bathed in an extracellular solution containing: 140 mM NaCl, 4 mM KCl, 2 mM CaCl2), 1 mM MgCl2, 10 mM HEPES, 5 mM glucose and 0.1% DMSO. Solution was maintained at pH 7.4 with NaOH and 300 mOsm/L. Chips with multi-hole (4×) medium resistance (2-3M) are used for the recombinant cell line experiments. Once harvested, cells are stored in extracellular solution set to 10° C. in the cell hotel with a minimum shaking speed of 200 rpm before addition to the chip at the beginning of each experiment. Whole cell patch clamp recordings were made using an intracellular solution containing: 90 mM KCl, 50 mM KF, 1.5 mM MgCl2, 11.1 mM EGTA and 10 mM HEPES, 2 mM NaATP, maintained at pH 7.2 with KOH. Currents are leak corrected (using P/2 leak correction protocol) and sampled at 5 kHz. Cells were clamped at −120 mV. After establishing a stable baseline, a submaximal concentration of GABA (3-5 μM for cells expressing α1β2γ2 and 10 μM for cells expressing […]) was applied at a rate of 10 μl/second, immediately followed by application of GABA+compound (10 μl/second) at a single concentration of compound per cell. Compounds were tested at six concentrations (0.029, 0.12, 0.47, 1.88, 7.5, and 30 μM) in n=8-12 cells per concentration. Compound effect was determined by dividing peak current amplitude after GABA+compound by peak current amplitude after GABA alone. EC50 and Emax values were determined from average values for each concentration.

The target in assay [3] is human GABAA receptors composed of the α4β3δ subunits (Homo sapiens (Human), UniProt O14764+P28472+P48169). Briefly: α4β3δ SyncroPatch automated patch clamp assay. It counts as cell-based. The conditions noted are these: for EC50: HEK cells, potentiation of submaximal GABA current, clamped at −120 mV; for α4β3δ EMAX: peak current after GABA+compound divided by peak current after GABA alone. As to the method:
as §1
(In general: Patch clamp records ionic current or voltage across a cell membrane.)

human GABAA receptors composed of the α1β2γ2 subunits, sequence (P14867 28-456 limits assumed): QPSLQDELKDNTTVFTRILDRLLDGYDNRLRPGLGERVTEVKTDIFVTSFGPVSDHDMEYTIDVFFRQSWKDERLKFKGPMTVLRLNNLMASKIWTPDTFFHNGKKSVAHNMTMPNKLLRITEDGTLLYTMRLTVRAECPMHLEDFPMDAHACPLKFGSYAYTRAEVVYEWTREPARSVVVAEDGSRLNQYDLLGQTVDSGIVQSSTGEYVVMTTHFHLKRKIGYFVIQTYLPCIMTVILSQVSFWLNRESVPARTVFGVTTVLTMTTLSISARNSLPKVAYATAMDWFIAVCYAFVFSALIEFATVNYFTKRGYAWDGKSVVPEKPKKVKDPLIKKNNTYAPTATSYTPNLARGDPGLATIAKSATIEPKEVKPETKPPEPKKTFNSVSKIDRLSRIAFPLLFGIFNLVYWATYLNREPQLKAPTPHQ
human GABAA receptors composed of the α1β2γ2 subunits, sequence (P47870 25-512 limits assumed): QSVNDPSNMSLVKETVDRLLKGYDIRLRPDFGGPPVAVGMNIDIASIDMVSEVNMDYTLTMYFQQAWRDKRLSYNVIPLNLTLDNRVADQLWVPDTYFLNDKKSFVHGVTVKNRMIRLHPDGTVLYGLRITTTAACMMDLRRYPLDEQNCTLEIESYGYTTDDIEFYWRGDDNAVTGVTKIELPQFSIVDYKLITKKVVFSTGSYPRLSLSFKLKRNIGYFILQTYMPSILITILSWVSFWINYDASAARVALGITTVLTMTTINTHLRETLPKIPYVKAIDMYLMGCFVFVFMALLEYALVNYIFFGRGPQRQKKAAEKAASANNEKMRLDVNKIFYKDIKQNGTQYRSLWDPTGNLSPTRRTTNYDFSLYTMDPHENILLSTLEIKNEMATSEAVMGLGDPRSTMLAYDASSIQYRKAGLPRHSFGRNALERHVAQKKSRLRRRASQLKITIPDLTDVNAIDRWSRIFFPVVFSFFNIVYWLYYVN
human GABAA receptors composed of the α1β2γ2 subunits, sequence (P18507 40-475 limits assumed): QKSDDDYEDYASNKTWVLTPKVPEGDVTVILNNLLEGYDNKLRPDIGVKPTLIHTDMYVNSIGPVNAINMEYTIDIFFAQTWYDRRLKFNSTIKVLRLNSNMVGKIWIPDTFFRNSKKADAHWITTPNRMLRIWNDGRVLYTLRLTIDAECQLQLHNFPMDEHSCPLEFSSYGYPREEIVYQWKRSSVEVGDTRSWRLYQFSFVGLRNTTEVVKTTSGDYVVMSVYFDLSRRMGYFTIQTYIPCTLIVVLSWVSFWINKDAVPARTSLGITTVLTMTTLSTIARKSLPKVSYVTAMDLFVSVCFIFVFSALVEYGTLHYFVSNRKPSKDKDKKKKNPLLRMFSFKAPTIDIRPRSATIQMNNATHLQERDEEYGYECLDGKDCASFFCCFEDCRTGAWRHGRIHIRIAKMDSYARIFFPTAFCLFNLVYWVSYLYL
human GABAA receptors composed of the α4β3δ subunits, sequence (P48169 36-554 limits assumed): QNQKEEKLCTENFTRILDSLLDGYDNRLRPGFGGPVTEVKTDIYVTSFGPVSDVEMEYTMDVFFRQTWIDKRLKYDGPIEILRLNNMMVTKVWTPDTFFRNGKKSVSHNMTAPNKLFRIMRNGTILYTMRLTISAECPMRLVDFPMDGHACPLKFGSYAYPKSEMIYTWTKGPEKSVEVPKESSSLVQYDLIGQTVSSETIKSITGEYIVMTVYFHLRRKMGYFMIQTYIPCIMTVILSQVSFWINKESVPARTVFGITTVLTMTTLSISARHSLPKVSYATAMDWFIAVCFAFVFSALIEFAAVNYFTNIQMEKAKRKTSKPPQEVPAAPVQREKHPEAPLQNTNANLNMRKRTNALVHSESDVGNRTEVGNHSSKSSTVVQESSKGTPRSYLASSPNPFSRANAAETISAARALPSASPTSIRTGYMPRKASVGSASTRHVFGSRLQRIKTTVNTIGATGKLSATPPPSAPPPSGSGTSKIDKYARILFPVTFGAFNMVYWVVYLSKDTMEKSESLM
human GABAA receptors composed of the α4β3δ subunits, sequence (P28472 26-473 limits assumed): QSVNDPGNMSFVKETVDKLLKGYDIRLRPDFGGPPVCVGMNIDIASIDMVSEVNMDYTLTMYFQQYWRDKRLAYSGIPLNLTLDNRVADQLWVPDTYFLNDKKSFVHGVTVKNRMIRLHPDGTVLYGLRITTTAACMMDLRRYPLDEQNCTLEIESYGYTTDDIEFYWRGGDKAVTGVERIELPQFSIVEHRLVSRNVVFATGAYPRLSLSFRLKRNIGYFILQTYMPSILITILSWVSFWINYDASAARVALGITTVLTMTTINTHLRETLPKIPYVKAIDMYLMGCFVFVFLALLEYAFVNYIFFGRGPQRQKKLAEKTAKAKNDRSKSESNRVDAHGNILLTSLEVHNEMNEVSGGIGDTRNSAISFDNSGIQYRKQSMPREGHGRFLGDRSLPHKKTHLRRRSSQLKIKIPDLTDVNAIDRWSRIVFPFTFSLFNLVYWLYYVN
human GABAA receptors composed of the α4β3δ subunits, sequence (O14764 17-452 limits assumed): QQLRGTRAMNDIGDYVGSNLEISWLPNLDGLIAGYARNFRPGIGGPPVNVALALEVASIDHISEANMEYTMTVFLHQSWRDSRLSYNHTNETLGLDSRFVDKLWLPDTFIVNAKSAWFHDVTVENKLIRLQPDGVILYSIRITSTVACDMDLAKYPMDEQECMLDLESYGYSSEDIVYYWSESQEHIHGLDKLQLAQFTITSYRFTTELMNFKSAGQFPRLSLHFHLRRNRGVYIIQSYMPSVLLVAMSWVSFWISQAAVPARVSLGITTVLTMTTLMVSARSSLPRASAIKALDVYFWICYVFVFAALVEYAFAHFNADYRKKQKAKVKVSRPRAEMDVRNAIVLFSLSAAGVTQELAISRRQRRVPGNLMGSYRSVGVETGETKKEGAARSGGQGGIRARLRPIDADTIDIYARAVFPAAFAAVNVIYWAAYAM

On to `COC[C@@]1(O)CC[C@H]2[C@H](CC[C@@H]3[C@@H]2CC[C@]2(C)[C@@H]([C@@H](C)Nc4ccc(C#N)cn4)CC[C@@H]32)C1` [Example 41, 6-(((R)-1-((3R,5R,8R,9R,10S,13S,14S,17S)-3-hydroxy-3-(methoxymethyl)-13-methylhexadecahydro-1H-cyclopenta[a]phenanthren-17-yl)ethyl)amino)nicotinonitrile], for which, in assay [1], the IC50 lay in the range of 100 to 1000 nM. Moreover, in assay [2], the EC50 was at least 1000 nM and the “α1β2γ2 EMAX” value is “A (A indicates an Emax response <8)”. Moreover, in assay [3], the EC50 was at least 1000 nM and the “α4β3δ EMAX” value was “B (B indicates an Emax response 30 to <45)”.

Turning to `COC[C@@]1(O)CC[C@H]2[C@@H](CC[C@@H]3[C@@H]2CC[C@]2(C)[C@@H]([C@@H](C)Cn4nnc(C)n4)CC[C@@H]32)C1` [Example 53, (3R,5S,8R,9R,10S,13S,14S,17R)-3-(methoxymethyl)-13-methyl-17-((R)-1-(5-methyl-2H-tetrazol-2-yl)propan-2-yl)hexadecahydro-1H-cyclopenta[a]phenanthren-3-ol], the IC50 in assay [1] was in the range of 100 to 1000 nM. Also, in assay [2], the EC50 was at least 1000 nM and the “α1β2γ2 EMAX” value was “A (A indicates an Emax response <8)”. Moreover, in assay [3], the EC50 was at least 1000 nM and the “α4β3δ EMAX” value was “A (A indicates an Emax response <30)”.

As for `CC[C@@]1(O)CC[C@@]2(C)[C@H](CC[C@@H]3[C@@H]2CC[C@]2(C)[C@@H]([C@@H](C)Cn4ccc(C#N)n4)CC[C@@H]32)C1` [Example 61, 1-((R)-2-((3R,5R,8R,9S,10S,13S,14S,17R)-3-ethyl-3-hydroxy-10,13-dimethylhexadecahydro-1H-cyclopenta[a]phenanthren-17-yl)propyl)-1H-pyrazole-3-carbonitrile], the half-maximal inhibitory concentration (IC50) in assay [1] is under 100 nM. For the same molecule, in assay [2], the EC50 is under 200 nM and the “α1β2γ2 EMAX” value is “C (C indicates an Emax response ≥10)”. In assay [3], the concentration for a half-maximal effect (EC50) is under 200 nM and the “α4β3δ EMAX” value is reported as “A (A indicates an Emax response <30)”.

On to `CCC[C@@]1(O)CC[C@H]2[C@H](CC[C@@H]3[C@@H]2CC[C@]2(C)[C@@H]([C@@H](C)Cn4cc(C#N)cn4)CC[C@@H]32)C1` [Example 65, 1-((R)-2-((3R,5R,8R,9R,10S,13S,14S,17R)-3-hydroxy-13-methyl-3-propylhexadecahydro-1H-cyclopenta[a]phenanthren-17-yl)propyl)-1H-pyrazole-4-carbonitrile], for which, in assay [1], the IC50 was under 100 nM. For the same molecule, in assay [2], the half-maximal effective concentration (EC50) was at least 1000 nM and the “α1β2γ2 EMAX” value is “A (A indicates an Emax response <8)”. Moreover, in assay [3], the EC50 was under 200 nM and the “α4β3δ EMAX” value is recorded as “B (B indicates an Emax response 30 to <45)”.

As to `CCOC[C@@]1(O)CC[C@H]2[C@H](CC[C@@H]3[C@@H]2CC[C@]2(C)[C@@H]([C@@H](C)N(C)S(=O)(=O)c4cccc(C#N)n4)CC[C@@H]32)C1` [Example 72], the IC50 in assay [1] was under 100 nM. In assay [2], the EC50 was in the range of 200 to 1000 nM and the “α1β2γ2 EMAX” value was “C (C indicates an Emax response ≥10)”. Further, in assay [3], the EC50 lay in the range of 200 to 1000 nM and the “α4β3δ EMAX” value is reported as “C (C indicates an Emax response ≥45)”.

In the case of `CCOC[C@@]1(O)CC[C@H]2[C@H](CC[C@@H]3[C@@H]2CC[C@]2(C)[C@@H]([C@@H](C)NC(=O)c4ccc(F)cc4F)CC[C@@H]32)C1` [Example 132], the concentration for half-maximal inhibition (IC50) in assay [1] is under 100 nM. Also, in assay [2], the EC50 was at least 1000 nM and the “α1β2γ2 EMAX” value is recorded as “C (C indicates an Emax response ≥10)”. Besides, in assay [3], the EC50 was at least 1000 nM and the “α4β3δ EMAX” value is given as “B (B indicates an Emax response 30 to <45)”.

For the molecule `CCOC[C@@]1(O)CC[C@H]2[C@H](CC[C@@H]3[C@@H]2CC[C@]2(C)[C@@H]([C@@H](C)Nc4cccc(N5CCCC5=O)n4)CC[C@@H]32)C1` [Example 263], the IC50 in assay [1] was under 100 nM. For the same molecule, in assay [2], the half-maximal effective concentration (EC50) is 200 to 1000 nM and the “α1β2γ2 EMAX” value was “A (A indicates an Emax response <8)”. For the same molecule, in assay [3], the EC50 lay within 200 to 1000 nM and the “α4β3δ EMAX” value is reported as “A (A indicates an Emax response <30)”.

As for `CCOC[C@@]1(O)CC[C@H]2[C@H](CC[C@@H]3[C@@H]2CC[C@]2(C)[C@@H]([C@H](C)Cn4cc(C#N)cn4)CC[C@@H]32)C1` [Example 270, 1-((S)-2-((3R,5R,8R,9R,10S,13S,14S,17R)-3-(ethoxymethyl)-3-hydroxy-13-methylhexadecahydro-1H-cyclopenta[a]phenanthren-17-yl)propyl)-1H-pyrazole-4-carbonitrile], the IC50 in assay [1] is under 100 nM. Further, in assay [2], the EC50 is 200 to 1000 nM and the “α1β2γ2 EMAX” value is “C (C indicates an Emax response ≥10)”. In assay [3], the EC50 was in the range of 200 to 1000 nM and the “α4β3δ EMAX” value was “C (C indicates an Emax response ≥45)”.

Take `CC[C@@]1(O)CC[C@H]2[C@H](CC[C@@H]3[C@@H]2CC[C@]2(C)[C@@H]([C@@H](C)Cn4ccc(C#N)n4)CC[C@@H]32)C1` [Example 272, 1-((R)-2-((3R,5R,8R,9R,10S,13S,14S,17R)-3-ethyl-3-hydroxy-13-methylhexadecahydro-1H-cyclopenta[a]phenanthren-17-yl)propyl)-1H-pyrazole-3-carbonitrile]: in assay [1], the concentration for half-maximal inhibition (IC50) was under 100 nM. In assay [2], the EC50 is under 200 nM and the “α1β2γ2 EMAX” value is given as “C (C indicates an Emax response ≥10)”. In addition, in assay [3], the half-maximal effective concentration (EC50) is under 200 nM and the “α4β3δ EMAX” value was “A (A indicates an Emax response <30)”.

Consider `CC[C@@]1(O)CC[C@H]2[C@H](CC[C@@H]3[C@@H]2CC[C@]2(C)[C@@H]([C@H](C)Cn4cc(C#N)cn4)CC[C@@H]32)C1` [Example 276, 1-((S)-2-((3R,5R,8R,9R,10S,13S,14S,17R)-3-ethyl-3-hydroxy-13-methylhexadecahydro-1H-cyclopenta[a]phenanthren-17-yl)propyl)-1H-pyrazole-4-carbonitrile], for which the IC50 in assay [1] is under 100 nM. Further, in assay [2], the EC50 is 200 to 1000 nM and the “α1β2γ2 EMAX” value is “B (B indicates an Emax response 8 to <10)”. Moreover, in assay [3], the concentration for a half-maximal effect (EC50) is under 200 nM and the “α4β3δ EMAX” value is “A (A indicates an Emax response <30)”.

As for `CCOC[C@@]1(O)CC[C@@]2(C)[C@H](CC[C@@H]3[C@@H]2CC[C@]2(C)[C@@H]([C@H](C)Cn4ccc(C#N)n4)CC[C@@H]32)C1` [Example 278, 1-((S)-2-((3R,5R,8R,9S,10S,13S,14S,17R)-3-(ethoxymethyl)-3-hydroxy-10,13-dimethylhexadecahydro-1H-cyclopenta[a]phenanthren-17-yl)propyl)-1H-pyrazole-3-carbonitrile], the IC50 in assay [1] was under 100 nM. Besides, in assay [2], the EC50 was under 200 nM and the “α1β2γ2 EMAX” value is listed as “A (A indicates an Emax response <8)”. For the same molecule, in assay [3], the EC50 was under 200 nM and the “α4β3δ EMAX” value is “A (A indicates an Emax response <30)”.

The IC50 is the point on the concentration scale where inhibition reaches its midpoint. As usually defined, the EC50 is the midpoint of the concentration-response curve.
